Assay results taken from ChEMBL document CHEMBL1128412, “Mechanism-based development of new antimalarials: synthesis of derivatives of artemisinin attached to iron chelators” (J Med Chem, 1995).

Columns and labels:
Plasmodium falciparum [1] = test: In vitro antimalarial activity against Plasmodium falciparum in 20 mM FeCl3; type: functional, organism-based
Plasmodium falciparum [2] = test: In vitro antimalarial activity against Plasmodium falciparum; type: functional, organism-based

Row | SMILES | IC50 (Plasmodium falciparum [1]) [µM] | IC50 (Plasmodium falciparum [2]) [µM]
1 | C[C@H]1[C@@H](OCCCOc2c(O)cccc2O)O[C@@H]2O[C@@]3(C)CC[C@H]4[C@H](C)CC[C@@H]1[C@@]24OO3 | 0.00921 | 0.00767
2 | C[C@H]1[C@@H](OCCCBr)O[C@@H]2O[C@@]3(C)CC[C@H]4[C@H](C)CC[C@@H]1[C@@]24OO3 |  | 0.00368
3 | C[C@H]1[C@@H](OCCCONC(=O)c2ccccc2)O[C@@H]2O[C@@]3(C)CC[C@H]4[C@H](C)CC[C@@H]1[C@@]24OO3 | 0.0329 | 0.0236
4 | C[C@H]1[C@@H](OCCCOc2coc(CO)cc2=O)O[C@@H]2O[C@@]3(C)CC[C@H]4[C@H](C)CC[C@@H]1[C@@]24OO3 | 0.0168 | 0.00955
5 | CCN(CC)C(=S)SCCCO[C@H]1O[C@@H]2O[C@@]3(C)CC[C@H]4[C@H](C)CC[C@@H]([C@H]1C)[C@@]24OO3 |  | 0.00765
6 | COC(=O)/C=C/c1ccc(OCCCO[C@H]2O[C@@H]3O[C@@]4(C)CC[C@H]5[C@H](C)CC[C@@H]([C@H]2C)[C@@]35OO4)c(O)c1 | 0.00338 | 0.00478
7 | C[C@H]1[C@@H](OCCC2Oc3cccc(O)c3O2)O[C@@H]2O[C@@]3(C)CC[C@H]4[C@H](C)CC[C@@H]1[C@@]24OO3 (some centres undefined) |  | 0.00664
8 | C[C@H]1[C@@H](OCCC2ON2C(=O)c2ccccc2O)O[C@@H]2O[C@@]3(C)CC[C@H]4[C@H](C)CC[C@@H]1[C@@]24OO3 (some centres undefined) |  | 0.00425
9 | C[C@H]1[C@@H](OCCCONC(=O)c2ccccc2O)O[C@@H]2O[C@@]3(C)CC[C@H]4[C@H](C)CC[C@@H]1[C@@]24OO3 | 0.0487 | 0.0525
10 | C[C@H]1[C@@H](OCCCOc2cccc(O)c2O)O[C@@H]2O[C@@]3(C)CC[C@H]4[C@H](C)CC[C@@H]1[C@@]24OO3 |  | 0.0127
11 | C[C@@H]1CC[C@H]2[C@@H](C)C(=O)O[C@@H]3O[C@@]4(C)CC[C@@H]1[C@]32OO4 [ARTEMISININ] | 0.00541 | 0.00582
12 | C[C@H]1[C@@H](O)O[C@@H]2O[C@@]3(C)CC[C@H]4[C@H](C)CC[C@@H]1[C@@]24OO3 [ARTENIMOL] |  | 0.0011
13 | O=C(NO)c1ccccc1 [BENZOHYDROXAMATE] |  | 17.6
14 | O=C(O)/C=C/c1ccc(O)c(O)c1 [CAFFEIC ACID] |  | 122
15 | O=c1cc(CO)occ1O [KOJIC ACID] |  | 1580
16 | COC(=O)/C=C/c1ccc(O)c(O)c1 [METHYLCAFFEATE] |  | 46.5
17 | Oc1cccc(O)c1O [PYROGALLOL] |  | 5.66
18 | O=C(NO)c1ccccc1O [SALICYLHYDROXAMIC ACID] |  | 107
